Source: paper PMC4197335, “Cancer-Selective Targeting of the NF-κB Survival Pathway with GADD45β/MKK7 Inhibitors” (Cancer Cell, 2014)

Columns and labels:
microsomal stability = type: in vitro ADME, human
Description: (§1) Pharmacophore Model Building
(§2) The pharmacophore predictive
(§3) Broad- Panel Kinase Profiling
(§4) according to in-house protocols therein.
(§5) Pharmacokinetic Anal yses
(§6) In vitro pharmacok inetic assays were […]

GST-hMKK7 = target: T1, GST-hMKK7 (Homo sapiens, UniProt O14733); experiment: tryptophan fluorescence quenching analysis; type: binding; details: DTP3/MKK7 interaction
T1 construct: Full-length human (h)MKK7 was expressed as a protein fused to an N-terminal GST tag (GST-MKK7); made in house
T1 sequence (O14733 1-419): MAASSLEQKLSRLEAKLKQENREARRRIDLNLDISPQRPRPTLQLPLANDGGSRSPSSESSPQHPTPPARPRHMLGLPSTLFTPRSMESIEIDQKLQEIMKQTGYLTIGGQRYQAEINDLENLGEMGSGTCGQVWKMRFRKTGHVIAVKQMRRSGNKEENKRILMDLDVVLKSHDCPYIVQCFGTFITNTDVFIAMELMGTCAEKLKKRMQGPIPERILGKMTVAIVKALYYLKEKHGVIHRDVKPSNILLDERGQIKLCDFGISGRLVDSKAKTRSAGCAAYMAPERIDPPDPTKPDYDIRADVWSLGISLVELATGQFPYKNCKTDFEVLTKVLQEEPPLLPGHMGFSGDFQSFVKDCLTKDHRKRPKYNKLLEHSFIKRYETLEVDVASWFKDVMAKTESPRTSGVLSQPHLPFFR
Description: The stoichiometry and KD value of the DTP3/MKK7 interaction were determined by tryptophan fluorescence quenching analysis, after fitting the fluorescence data with a nonlinear regression algorithm, as described by [Williamson (2013)]. Additional details are provided in Supplemental Experimental Procedures, along with a description of the methods used for CD and MALDI-TOF mass spectrometry analyses and the pull-down of MKK7 from cells with DTP3.
Spectrofluorimetric Analyses
The stoichiometry of the interaction of DTP3 with MKK7 was determined by using tryptophan f luorescence quenching analysis. Spectra were acquired with a Cary Eclipse Spectrof luorimeter analyzer (Varian Inc.), equipped with Peltier thermostating system, and a 1- cm quartz cuvette. The analyses were carried out using 1. 25 μM of GST -hMKK7 or GST dissolved in 10 mM of phosphate buff er, pH 7.5, and increasing concentrations of DTP3 or control SCRB D-peptide dissolved in the same buffer. […] The fluorescence values recorded at 333 nm were extracted, transformed to -ΔFluorescence and, then, plotted against the peptide concentration.
Fluorescence data were f itted using a single- site binding model (equation 1): […]
binding, was a highly appropriate model to account for the measured f lorescence trends, resulting in a R square (R2) of 0.985 and a chi square (X2) of 1.436. […]

tolerability in mice = experiment: tolerability in mice
Description: Table S6, related to Figure 7. Summary of the pharmacokinetic profiles of DTP3 and z-DTP2
PK Param enters Values Drug
Values denote means ± SD (n=3) or SEM (n=5), as indicated. MW , molecular

[1] = distribution coefficient (LogD); type: physicochemical
Description: as §1, §2, §3, §4, §5, §6

## CC(=O)N[C@H](Cc1ccc(O)cc1)C(=O)N[C@H](CCCNC(=N)N)C(=O)N[C@H](Cc1ccccc1)C(N)=O [DTP3, Ac-YRF-NH2]
Microsomal stability
  microsomal stability (human): 4.87 ± 1.24 µL/min/mg protein
Microsomal stability; human, microsomes, read-out: microsomal stability (human) t½
  half-life: 4.75 h
GST-hMKK7
  Kd: 0.0648 ± 0.00622 µM
Tolerability in mice; mice, osmotic pumps
  Toxicity - continual s.c. dosing (14.5 mg/kg/day for 28 days): no apparent toxicity
Tolerability in mice; mouse, in vivo, iv, 10 mg/kg
  Toxicity - single i.v. (10 mg/kg): no apparent toxicity
Tolerability in mice; mouse, in vivo, po, 100 mg/kg
  Toxicity - oral (100 mg/kg): no apparent toxicity
Tolerability in mice; mouse, in vivo, sc, 10 mg/kg
  Toxicity - single s.c. (10 mg/kg): no apparent toxicity
[1]
  logD: 1.19 ± 0.29
